Test results as given in paper PMC8841528, “Structural Basis for Unusual TCR CDR3β Usage Against an Immunodominant HIV-1 Gag Protein Peptide Restricted to an HLA-B*81:01 Molecule” (Frontiers in Immunology, 2022).

Test system: T18A TCR
Assay: Surface plasmon resonance (SPR) binding of T18A TCR to peptide/HLA-B*81:01 complexes
Conditions: result in words
Procedure: The SPR assays were performed as described earlier ([40]–[42]). Briefly, the protein was buffer -exchanged into PBS and biotinylated for 1h at room temperature. […] The Kd was determined by the fitting of a single-ligand binding model.

Substance: TPsDLNTML [TL9 escape variant, Ser at position 3, presented by HLA-B*81:01]
- recognition of TL9 escape variant presented by HLA-B*81:01 by T18A TCR: could recognize

Substance: TPQDLNsML [TL9 escape variant, Ser at position 7, presented by HLA-B*81:01]
- recognition of TL9 escape variant presented by HLA-B*81:01 by T18A TCR: could recognize
